Results as given in the NIST ThermoML archive (doi:10.1021/je3010535).
Where “and” joins values, the source holds several entries; their conditions need not be identical. Equal entries are not always repeated. ± gives the expanded uncertainty stated by the source.

Assay: Henry's Law constant (molality scale); of the first substance listed, at infinite dilution; xn = mol fraction of the nth substance listed
Conditions: Liquid, Chromatography, x1 = 0

Row | SMILES | Henry's Law constant (274.15 K) | Henry's Law constant (294.65 K) | Henry's Law constant (296.15 K) | Henry's Law constant (310.15 K) | Henry's Law constant (313.15 K) | Henry's Law constant (326.15 K) | Henry's Law constant (331.15 K) | Henry's Law constant (320.15 K) | Henry's Law constant (333.15 K) | Henry's Law constant (298.15 K) | Henry's Law constant (311.15 K) | Henry's Law constant (332.15 K) | Henry's Law constant (273.25 K)
1 | Cc1cc(C)cc(C)c1 [1,3,5-trimethylbenzene] + O | 115 ± 46 kPa·kg/mol | 304 kPa·kg/mol and 352 kPa·kg/mol | 408 ± 160 kPa·kg/mol | 719 ± 290 kPa·kg/mol | 1330 ± 530 kPa·kg/mol | 2360 ± 940 kPa·kg/mol | 1830 ± 730 kPa·kg/mol |  |  |  |  |  | 
2 | CC(=O)CC(C)C [4-methylpentan-2-one] + O | 0.834 ± 0.25 kPa·kg/mol | 8.08 kPa·kg/mol and 8.27 kPa·kg/mol | 9.34 ± 2.8 kPa·kg/mol | 37.2 ± 11 kPa·kg/mol |  |  | 164 ± 49 kPa·kg/mol | 72.5 ± 22 kPa·kg/mol | 236 ± 71 kPa·kg/mol |  |  |  | 
3 | CCCCOCCO [2-butoxyethan-1-ol] + O |  |  |  |  |  |  |  |  |  | 0.269 ± 0.081 kPa·kg/mol | 0.904 ± 0.27 kPa·kg/mol | 4.27 ± 1.3 kPa·kg/mol | 
4 | CCCl [chloroethane] + O | 522 ± 160 kPa·kg/mol |  |  |  | 1950 ± 580 kPa·kg/mol | 2940 ± 880 kPa·kg/mol |  |  |  |  |  |  | 
5 | CC(C)(C)O [2-methylpropan-2-ol] + O |  |  |  |  |  |  |  |  |  | 1.25 ± 0.37 kPa·kg/mol | 3.19 ± 0.96 kPa·kg/mol | 6.96 ± 2.1 kPa·kg/mol | 0.055 ± 0.017 kPa·kg/mol
6 | ClC(Cl)=C(Cl)C(Cl)=C(Cl)Cl [1,1,2,3,4,4-hexachloro-1,3-butadiene] + O | 145 kPa·kg/mol |  | 287 kPa·kg/mol | 366 kPa·kg/mol | 2180 kPa·kg/mol | 3830 kPa·kg/mol |  |  |  |  |  |  | 
7 | CCCc1ccccc1 [propylbenzene] + O | 182 kPa·kg/mol |  | 505 kPa·kg/mol | 412 kPa·kg/mol | 1900 kPa·kg/mol | 3160 kPa·kg/mol | 1920 kPa·kg/mol |  |  |  |  |  | 
8 | C=C(Cl)Cl [1,1-dichloroethene] + O | 787 ± 240 kPa·kg/mol |  |  |  | 4460 ± 1300 kPa·kg/mol | 10500 ± 3200 kPa·kg/mol |  |  |  |  |  |  | 
9 | Cc1ccc2ccccc2c1 [2-methylnaphthalene] + O | 4.91 ± 1.5 kPa·kg/mol | 31.4 kPa·kg/mol and 16.6 kPa·kg/mol | 35 ± 10 kPa·kg/mol | 84.4 ± 25 kPa·kg/mol |  |  | 169 ± 51 kPa·kg/mol | 106 ± 32 kPa·kg/mol | 166 ± 50 kPa·kg/mol |  |  |  | 
10 | ClC/C=C/CCl [trans-1,4-dichloro-2-butene] + O | 3.9 ± 1.6 kPa·kg/mol | 28.2 kPa·kg/mol and 17.7 kPa·kg/mol | 31.6 ± 13 kPa·kg/mol | 96.4 ± 39 kPa·kg/mol |  |  | 155 ± 62 kPa·kg/mol | 175 ± 70 kPa·kg/mol |  |  |  |  | 
11 | ClC/C=C\CCl [cis-1,4-dichloro-2-butene] + O | 3.03 kPa·kg/mol |  | 31.9 kPa·kg/mol | 102 kPa·kg/mol |  | 1380 kPa·kg/mol | 492 kPa·kg/mol | 182 kPa·kg/mol |  |  |  |  | 
12 | CC(C)=O [acetone] + O | 0.231 ± 0.092 kPa·kg/mol | 1.44 kPa·kg/mol and 1.26 kPa·kg/mol | 1.13 ± 0.45 kPa·kg/mol | 7.55 ± 3 kPa·kg/mol |  |  | 16 ± 6.4 kPa·kg/mol | 11.5 ± 4.6 kPa·kg/mol | 41.1 ± 16 kPa·kg/mol |  |  |  | 
13 | Cc1ccccc1Cl [2-chlorotoluene] + O | 90.4 ± 36 kPa·kg/mol | 248 kPa·kg/mol and 316 kPa·kg/mol | 356 ± 140 kPa·kg/mol | 503 ± 200 kPa·kg/mol | 890 ± 360 kPa·kg/mol | 1280 ± 510 kPa·kg/mol | 1040 ± 420 kPa·kg/mol | 533 ± 210 kPa·kg/mol |  |  |  |  | 
14 | Cl/C=C/Cl [(E)-1,2-dichloroethene] + O | 311 ± 93 kPa·kg/mol | 956 kPa·kg/mol and 852 kPa·kg/mol | 995 ± 300 kPa·kg/mol |  | 1820 ± 540 kPa·kg/mol | 2900 ± 870 kPa·kg/mol |  |  |  |  |  |  | 
15 | CC(Cl)Cl [1,1-dichloroethane] + O | 188 ± 56 kPa·kg/mol |  |  |  | 953 ± 290 kPa·kg/mol | 1560 ± 470 kPa·kg/mol |  |  |  |  |  |  | 
16 | CCC(C)=O [butanone] + O | 0.416 ± 0.12 kPa·kg/mol | 1.72 kPa·kg/mol and 2.37 kPa·kg/mol | 2.62 ± 0.79 kPa·kg/mol | 8.13 ± 2.4 kPa·kg/mol |  |  | 43.9 ± 13 kPa·kg/mol | 15.3 ± 4.6 kPa·kg/mol | 62 ± 19 kPa·kg/mol |  |  |  | 
17 | CC(C)(Cl)Cl [2,2-dichloropropane] + O | 423 ± 170 kPa·kg/mol |  |  |  | 3280 ± 1300 kPa·kg/mol | 36600 ± 15000 kPa·kg/mol |  |  |  |  |  |  | 

Row | SMILES | Henry's Law constant (274.15 K) | Henry's Law constant (294.65 K) | Henry's Law constant (296.15 K) | Henry's Law constant (310.15 K) | Henry's Law constant (313.15 K) | Henry's Law constant (326.15 K) | Henry's Law constant (331.15 K) | Henry's Law constant (320.15 K) | Henry's Law constant (333.15 K) | Henry's Law constant (298.15 K) | Henry's Law constant (311.15 K) | Henry's Law constant (332.15 K) | Henry's Law constant (273.25 K)
18 | CBr [bromomethane] + O | 399 ± 120 kPa·kg/mol |  |  |  | 1120 ± 340 kPa·kg/mol | 1920 ± 580 kPa·kg/mol |  |  |  |  |  |  | 
19 | ClCC(Br)CBr (centres undefined) [1,2-dibromo-3-chloropropane] + O | 1.28 ± 0.38 kPa·kg/mol | 7.76 kPa·kg/mol and 9.37 kPa·kg/mol | 11.8 ± 3.5 kPa·kg/mol | 28.1 ± 8.4 kPa·kg/mol |  |  | 101 ± 30 kPa·kg/mol | 49.7 ± 15 kPa·kg/mol | 133 ± 40 kPa·kg/mol |  |  |  | 
20 | FC(Cl)(Cl)Cl [trichlorofluoromethane] + O | 987 ± 300 kPa·kg/mol |  |  |  | 8110 ± 2400 kPa·kg/mol | 15600 ± 4700 kPa·kg/mol |  |  |  |  |  |  | 
21 | ClC(Cl)Cl [trichloromethane] + O | 107 ± 32 kPa·kg/mol | 301 kPa·kg/mol and 324 kPa·kg/mol | 363 ± 110 kPa·kg/mol | 782 ± 230 kPa·kg/mol | 628 ± 190 kPa·kg/mol | 1170 ± 350 kPa·kg/mol | 1770 ± 530 kPa·kg/mol |  |  |  |  |  | 
22 | FC(F)(Cl)C(F)(Cl)Cl [1,1,2-trichloro-1,2,2-trifluoroethane] + O | 1070 ± 320 kPa·kg/mol |  |  |  | 16800 ± 5000 kPa·kg/mol | 20100 ± 6000 kPa·kg/mol |  |  |  |  |  |  | 
23 | CC#N [acetonitrile] + O | 0.21 ± 0.084 kPa·kg/mol | 1.41 kPa·kg/mol and 1.55 kPa·kg/mol | 1.7 ± 0.68 kPa·kg/mol | 5.36 ± 2.1 kPa·kg/mol |  |  | 6.17 kPa·kg/mol | 12.6 ± 5.1 kPa·kg/mol |  |  |  |  | 
24 | CI [iodomethane] + O | 251 ± 75 kPa·kg/mol |  |  |  | 814 ± 240 kPa·kg/mol | 1560 ± 470 kPa·kg/mol |  |  |  |  |  |  | 
25 | CCCCC(CC)CO (centres undefined) [2-ethyl-1-hexanol] + O |  |  |  |  |  |  |  |  |  | 1.91 ± 0.76 kPa·kg/mol | 4.09 ± 1.6 kPa·kg/mol | 100 ± 40 kPa·kg/mol | 0.0797 ± 0.032 kPa·kg/mol
26 | CCC#N [propanenitrile] + O | 0.302 ± 0.091 kPa·kg/mol | 2.3 kPa·kg/mol and 2.2 kPa·kg/mol | 2.78 ± 0.83 kPa·kg/mol | 5.36 ± 1.6 kPa·kg/mol |  |  | 14 ± 4.2 kPa·kg/mol | 11 ± 3.3 kPa·kg/mol |  |  |  |  | 
27 | c1ccc2ccccc2c1 [naphthalene] + O | 5 ± 1.5 kPa·kg/mol | 31.7 kPa·kg/mol and 17.8 kPa·kg/mol | 34.7 ± 10 kPa·kg/mol | 90.2 ± 27 kPa·kg/mol |  |  | 196 ± 59 kPa·kg/mol | 116 ± 35 kPa·kg/mol | 278 ± 83 kPa·kg/mol |  |  |  | 
28 | ClC=C(Cl)Cl [trichloroethene] + O | 249 ± 75 kPa·kg/mol | 711 kPa·kg/mol and 721 kPa·kg/mol | 691 ± 210 kPa·kg/mol | 2110 ± 630 kPa·kg/mol | 1670 ± 500 kPa·kg/mol | 2630 ± 790 kPa·kg/mol | 4620 ± 1400 kPa·kg/mol |  |  |  |  |  | 
29 | C1CCCCC1 [cyclohexane] + O | 1010 ± 300 kPa·kg/mol | 2250 kPa·kg/mol | 2250 ± 670 kPa·kg/mol |  | 9460 ± 2800 kPa·kg/mol | 15700 ± 4700 kPa·kg/mol |  |  |  |  |  |  | 
30 | ClCBr [bromochloromethane] + O | 50.8 ± 15 kPa·kg/mol | 121 kPa·kg/mol and 123 kPa·kg/mol | 126 ± 38 kPa·kg/mol | 259 ± 78 kPa·kg/mol |  |  | 795 ± 240 kPa·kg/mol | 479 ± 140 kPa·kg/mol |  |  |  |  | 
31 | Brc1ccccc1 [bromobenzene] + O | 56.1 ± 17 kPa·kg/mol | 138 kPa·kg/mol and 147 kPa·kg/mol | 161 ± 48 kPa·kg/mol | 273 ± 82 kPa·kg/mol |  |  | 708 ± 210 kPa·kg/mol | 470 ± 140 kPa·kg/mol |  |  |  |  | 
32 | CC(Cl)CCl (centres undefined) [1,2-dichloropropane] + O | 70.7 ± 21 kPa·kg/mol | 217 kPa·kg/mol and 198 kPa·kg/mol | 225 ± 67 kPa·kg/mol | 418 ± 130 kPa·kg/mol |  | 699 ± 210 kPa·kg/mol | 1210 ± 360 kPa·kg/mol |  |  |  |  |  | 
33 | CC(Cl)(Cl)Cl [1,1,1-trichloroethane] + O | 484 ± 150 kPa·kg/mol | 1410 kPa·kg/mol and 1210 kPa·kg/mol | 1430 ± 430 kPa·kg/mol |  | 2680 ± 800 kPa·kg/mol | 4510 ± 1400 kPa·kg/mol |  |  |  |  |  |  | 
